Measured values: PubChem BioAssay (NCI)
Values joined by “and” are separate entries in the source; they are usually repeats but may differ in a detail not shown here. Equal entries are not always repeated.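 Each compound was tested at five concentrations against cells in 96-well plates for 48 hours. GI50: concentration for 50% inhibition of growth. TGI denotes the concentration required for complete inhibition of growth.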

system: MDA-MB-468 breast; experiment: NCI tumour cell line growth inhibition, 48 h

Going from `CCN1C(=O)N(CC)C2Nn3c(s/c(=C\c4ccccc4Br)c3=O)=NC21` (stereo not drawn) to `CC1(C)CCC2=C(O1)c1ccccc1C(=O)C2=O`, the GI50 rises from 1.1 µM to 1.68 µM (1.5-fold).

First: Nc1nc2c(s1)CCc1c-2c(Br)n(Cc2ccccc2)c1Br
Second: O=C1C(=O)c2c(nc3ccc(Br)cn23)-c2ccccc21
The GI50 of the first is 1.9-fold higher: 2.84 µM for the first, 1.53 µM for the second.

Compared with `Cc1ccccc1-n1ncc(C(=O)c2ccccc2)c1N`, `O=C(c1ccccc1)c1ccc(Oc2ccc([N+](=O)[O-])cc2[N+](=O)[O-])cc1` is lower in GI50: > 25 µM for the first, 1.73 µM for the second.

Going from `Clc1ccc2c(c1)N(CCCN1CCCC1)c1ccccc1S2` to `Clc1cccc(Cl)c1C1CSc2ccccc2N=C1c1ccccc1` (stereo not drawn), the GI50 rises from 2.75 µM to 9.59 µM (3.5-fold).

Going from `Cc1ccc(-c2cc3c(SCC(=O)Nc4cc(C(F)(F)F)ccc4Cl)nccn3n2)cc1` to `Cc1ccc(-c2cc(C(F)(F)F)nn2-c2ccc(S(N)(=O)=O)cc2)cc1`, the GI50 falls from > 100 µM to 24.2 µM.

First: CCCCCCCCCCCCCC1=NCCN1CCO
Second: CCCCCCCCN(CCCCCCCC)CCCCCCNc1cc(OC)cc2cccnc12
The GI50 of the first is 1.8-fold lower: 2.12 µM for the first, 3.71 µM for the second.

Going from `COc1ccc(C(=O)c2cc(OC)c(OC)c(OC)c2)cc1/C=C/C(=O)c1ccc(OC)c(OC)c1` to `COc1cc2nc(SCC(=O)Nc3cc(OC)c(OC)c(OC)c3)n(Cc3ccccc3)c(=O)c2cc1OC`, the GI50 rises from 1.25 µM to 5.72 µM (4.6-fold).

First: CS(=O)(=O)Nc1ccc(-c2cc(-c3ccccc3)cc(C(N)=O)c2N)cc1
Second: COc1cc(-c2nc3ccccc3s2)ccc1NC(=O)COc1ccc(Cl)cc1
The GI50 of the first is 7-fold higher: 14.5 µM for the first, 2.08 µM for the second.

Compared with `O=C1Nc2c(C(F)(F)F)cccc2[C@@]1(c1ccc(O)cc1)c1ccc(OC(F)(F)F)cc1`, `O=C(/C(=C\c1ccc([N+](=O)[O-])cc1)S(=O)Cc1ccc(F)cc1)c1ccc(F)cc1` (stereo not drawn) is higher in GI50: < 0.01 µM for the first, 2.05 µM for the second.

Compared with `COC1CCN(C(=O)c2cc(Cc3n[nH]c(=O)c4ccccc34)ccc2F)CC1`, `CCOC(=O)n1cc(C2=C(c3cn(C)c4ccccc34)COC2=O)c2ccccc21` is 570-fold lower in GI50: 30 µM for the first, 0.053 µM for the second.

Compared with `Cl.Fc1c[c-]c(-c2ccccn2)c(F)c1.[Pt].c1ccc(P(c2ccccc2)C([PH+](c2ccccc2)c2ccccc2)[PH+](c2ccccc2)c2ccccc2)cc1`, `COc1ccc(C(SCC(N)C(=O)O)(c2ccccc2)c2ccccc2)cc1` (stereo not drawn) is 43-fold lower in GI50: 2.69 µM for the first, 0.0627 µM for the second.

Going from `CC(C)(C)C(=O)OCOP(=O)(OCOC(=O)C(C)(C)C)C1CC(O)N(O)C1=O` (stereo not drawn) to `CCCNNC(=O)c1ccc(-c2ccc(NC(=O)CCCCCCC(=O)N[C@H](C(=O)N3C[C@H](O)C[C@H]3C(=O)N[C@@H](C)c3ccc(-c4scnc4C)cc3)C(C)(C)C)cc2)cc1`, the GI50 falls from 5.84 µM to 0.592 µM (9.9-fold).

`[O-][n+]1ccccc1S` and `O=C1NC(=O)C(=C/C=C/c2ccccc2)C(=O)N1` are within 1.5-fold of each other in GI50: 4.15 µM for the first, 2.99 µM for the second.

Compared with `COC(=O)[C@]12CC[C@@H](C)[C@H](C)[C@@H]1C1=CC[C@@H]3[C@@]4(C)C(C=O)=C[C@@](C)(COC(C)=O)C4=CC[C@@]3(C)[C@]1(C)CC2`, `NC1CCC(Nc2nc(NCc3ccc(-c4cccs4)nc3)c3ncn(C4CCCC4)c3n2)CC1` (stereo not drawn) is lower in GI50: 4.21 µM for the first, < 0.0134 µM for the second.

First: C[C@H](Nc1ncnc2nc[nH]c12)c1cc2ccc(F)cc2nc1-c1ccccn1
Second: Clc1ccc2c(c1)N(c1ncnc3ccc(-c4cnc5[nH]ccc5c4)cc13)CC2
The GI50 of the first is 84-fold higher: 31.9 µM for the first, 0.38 µM for the second.

Compared with `O=C1c2nsnc2C(=O)c2c(F)c(F)c(F)c(F)c21`, `c1cc2[nH]ncc2cc1-c1nc2ccc3[nH]ncc3c2c2c1CCCC2` is 1.7-fold lower in GI50: 0.672 µM for the first, 0.403 µM for the second.

Compared with `Cc1cc(O)ccc1C1=NN(c2ccc(S(C)(=O)=O)cc2)C(=O)CC1`, `Cn1cc(C2=C(c3cn(C)c4c([N+](=O)[O-])cccc34)C(=O)NC2=O)c2ccccc21` is higher in GI50: 11 µM for the first, > 25 µM for the second.

First: CN(Cc1cc(Br)cc(Br)c1O)Cc1cc(Br)cc(Br)c1O
Second: COc1ccc2c(c1)[nH]c(=O)c1c3cc(OC)ccc3cn21
The GI50 of the first is 53-fold higher: 2.09 µM for the first, 0.0393 µM for the second.

First: NC(=O)c1ccc(NN=O)nc1
Second: CC(=O)c1cc(C(=O)c2ccc3c(c2)Sc2ccccc2N3)c2c(C)cc(C)cn12
The GI50 of the first is higher: > 100 µM for the first, 0.496 µM for the second.

First: Nc1nc(OCc2cc(Br)cs2)c2[nH]cnc2n1
Second: Nc1ncc(-c2ccc3ncnc(N4CCc5cc(F)c(Cl)cc54)c3c2)cn1
The GI50 of the first is 17-fold higher: 14 µM for the first, 0.804 µM for the second.

`COc1ccc(C(=O)COC(=O)[C@H](C[Se][Se]C[C@H](NC(=O)c2ccc(Br)cc2F)C(=O)OCC(=O)c2ccc(OC)cc2)NC(=O)c2ccc(Br)cc2F)cc1` and `Cc1ccc(C(SCC(N)C(=O)O)(c2ccc(C)cc2)c2ccc(C)cc2)cc1` (stereo not drawn) are within 1.5-fold of each other in GI50: 1.72 µM for the first, 1.46 µM for the second.

`C/C(=C\CCc1ccoc1)CC/C=C(\C)CCCN1CCOCC1` and `CN(C)c1ccc(N=C2C=CC(=[N+](C)C)C=C2)cc1` are within 1.5-fold of each other in GI50: 2.58 µM for the first, 3.04 µM for the second.

Compound `O=[N+]([O-])c1ccccc1N/N=C\c1c[nH]c2ccccc12` has a GI50 of 1.13 µM.

First: CCN1C(=O)N(CC)C2Nn3c(s/c(=C\c4ccccc4Br)c3=O)=NC21 (stereo not drawn)
Second: CC1(C)CCC2=C(O1)c1ccccc1C(=O)C2=O
The TGI of the first is 2-fold higher: 6.87 µM for the first, 3.36 µM for the second.

Compared with `Nc1nc2c(s1)CCc1c-2c(Br)n(Cc2ccccc2)c1Br`, `O=C1C(=O)c2c(nc3ccc(Br)cn23)-c2ccccc21` is 5.3-fold lower in TGI: 17.2 µM for the first, 3.22 µM for the second.

Going from `Cc1ccccc1-n1ncc(C(=O)c2ccccc2)c1N` to `O=C(c1ccccc1)c1ccc(Oc2ccc([N+](=O)[O-])cc2[N+](=O)[O-])cc1`, the TGI falls from > 25 µM to 3.38 µM.

Going from `Clc1ccc2c(c1)N(CCCN1CCCC1)c1ccccc1S2` to `Clc1cccc(Cl)c1C1CSc2ccccc2N=C1c1ccccc1` (stereo not drawn), the TGI rises from 8.05 µM to 29.2 µM (3.6-fold).

First: Cc1ccc(-c2cc3c(SCC(=O)Nc4cc(C(F)(F)F)ccc4Cl)nccn3n2)cc1
Second: Cc1ccc(-c2cc(C(F)(F)F)nn2-c2ccc(S(N)(=O)=O)cc2)cc1
The TGI of the first is higher: > 100 µM for the first, 90.7 µM for the second.

Compared with `CCCCCCCCCCCCCC1=NCCN1CCO`, `CCCCCCCCN(CCCCCCCC)CCCCCCNc1cc(OC)cc2cccnc12` is 2.4-fold higher in TGI: 5.58 µM for the first, 13.5 µM for the second.

Going from `COc1ccc(C(=O)c2cc(OC)c(OC)c(OC)c2)cc1/C=C/C(=O)c1ccc(OC)c(OC)c1` to `COc1cc2nc(SCC(=O)Nc3cc(OC)c(OC)c(OC)c3)n(Cc3ccccc3)c(=O)c2cc1OC`, the TGI falls from 77.7 µM to 20.2 µM (3.8-fold).

`CS(=O)(=O)Nc1ccc(-c2cc(-c3ccccc3)cc(C(N)=O)c2N)cc1` and `COc1cc(-c2nc3ccccc3s2)ccc1NC(=O)COc1ccc(Cl)cc1` cannot be ordered by TGI: > 25 µM for the first, 56.6 µM for the second.

First: O=C1Nc2c(C(F)(F)F)cccc2[C@@]1(c1ccc(O)cc1)c1ccc(OC(F)(F)F)cc1
Second: O=C(/C(=C\c1ccc([N+](=O)[O-])cc1)S(=O)Cc1ccc(F)cc1)c1ccc(F)cc1 (stereo not drawn)
The TGI of the first is lower: < 0.01 µM for the first, 4.36 µM for the second.

`COC1CCN(C(=O)c2cc(Cc3n[nH]c(=O)c4ccccc34)ccc2F)CC1` and `CCOC(=O)n1cc(C2=C(c3cn(C)c4ccccc34)COC2=O)c2ccccc21` cannot be ordered by TGI: > 100 µM for the first, > 100 µM for the second.

First: Cl.Fc1c[c-]c(-c2ccccn2)c(F)c1.[Pt].c1ccc(P(c2ccccc2)C([PH+](c2ccccc2)c2ccccc2)[PH+](c2ccccc2)c2ccccc2)cc1
Second: COc1ccc(C(SCC(N)C(=O)O)(c2ccccc2)c2ccccc2)cc1 (stereo not drawn)
The TGI of the first is lower: 19.5 µM for the first, > 78.1 µM for the second.

Compared with `CC(C)(C)C(=O)OCOP(=O)(OCOC(=O)C(C)(C)C)C1CC(O)N(O)C1=O` (stereo not drawn), `COC(=O)[C@]12CC[C@@H](C)[C@H](C)[C@@H]1C1=CC[C@@H]3[C@@]4(C)C(C=O)=C[C@@](C)(COC(C)=O)C4=CC[C@@]3(C)[C@]1(C)CC2` is lower in TGI: > 100 µM for the first, 17.7 µM for the second.

First: [O-][n+]1ccccc1S
Second: O=C1NC(=O)C(=C/C=C/c2ccccc2)C(=O)N1
The TGI of the first is 4.5-fold higher: 45.2 µM for the first, 10.1 µM for the second.

First: C[C@H](Nc1ncnc2nc[nH]c12)c1cc2ccc(F)cc2nc1-c1ccccn1
Second: Clc1ccc2c(c1)N(c1ncnc3ccc(-c4cnc5[nH]ccc5c4)cc13)CC2
The TGI of the first is higher: > 100 µM for the first, 13.7 µM for the second.

`O=C1c2nsnc2C(=O)c2c(F)c(F)c(F)c(F)c21` and `c1cc2[nH]ncc2cc1-c1nc2ccc3[nH]ncc3c2c2c1CCCC2` are within 1.5-fold of each other in TGI: 2.32 µM for the first, 3.16 µM for the second.

`Cc1cc(O)ccc1C1=NN(c2ccc(S(C)(=O)=O)cc2)C(=O)CC1` and `Cn1cc(C2=C(c3cn(C)c4c([N+](=O)[O-])cccc34)C(=O)NC2=O)c2ccccc21` cannot be ordered by TGI: 44.3 µM for the first, > 25 µM for the second.

Compared with `CN(Cc1cc(Br)cc(Br)c1O)Cc1cc(Br)cc(Br)c1O`, `COc1ccc2c(c1)[nH]c(=O)c1c3cc(OC)ccc3cn21` is 11-fold lower in TGI: 13 µM for the first, 1.16 µM for the second.

`NC(=O)c1ccc(NN=O)nc1` and `CC(=O)c1cc(C(=O)c2ccc3c(c2)Sc2ccccc2N3)c2c(C)cc(C)cn12` cannot be ordered by TGI: > 100 µM for the first, > 100 µM for the second.

Compared with `NC1CCC(Nc2nc(NCc3ccc(-c4cccs4)nc3)c3ncn(C4CCCC4)c3n2)CC1` (stereo not drawn), `Nc1ncc(-c2ccc3ncnc(N4CCc5cc(F)c(Cl)cc54)c3c2)cn1` is 87-fold higher in TGI: 0.035 µM for the first, 3.04 µM for the second.

First: Nc1nc(OCc2cc(Br)cs2)c2[nH]cnc2n1
Second: COc1ccc(C(=O)COC(=O)[C@H](C[Se][Se]C[C@H](NC(=O)c2ccc(Br)cc2F)C(=O)OCC(=O)c2ccc(OC)cc2)NC(=O)c2ccc(Br)cc2F)cc1
The TGI of the first is 15-fold higher: 58.6 µM for the first, 3.85 µM for the second.

`C/C(=C\CCc1ccoc1)CC/C=C(\C)CCCN1CCOCC1` and `CN(C)c1ccc(N=C2C=CC(=[N+](C)C)C=C2)cc1` are within 1.5-fold of each other in TGI: 9.59 µM for the first, 12.2 µM for the second.

Compared with `Cc1ccc(C(SCC(N)C(=O)O)(c2ccc(C)cc2)c2ccc(C)cc2)cc1` (stereo not drawn), `O=[N+]([O-])c1ccccc1N/N=C\c1c[nH]c2ccccc12` is 2.8-fold lower in TGI: 16.6 µM for the first, 5.85 µM for the second.

For `C=CC(=O)NCc1cccc(Nc2ncc(Br)c(NCCCNC(=O)C3CCC3)n2)c1`, the GI50 was 1.64 µM and 1.02 µM.
For `CC1=CC(=C(c2ccc(N)cc2)c2ccc(N)cc2)C=CC1=N`, the GI50 was 0.373 µM and 0.411 µM.

With `C=CC(=O)NCc1cccc(Nc2ncc(Br)c(NCCCNC(=O)C3CCC3)n2)c1` the TGI was 4.33 µM and 5 µM.
`CC1=CC(=C(c2ccc(N)cc2)c2ccc(N)cc2)C=CC1=N` was tested, and the TGI was 4.9 µM and 4.3 µM.
